Results: patent US20230263762A1, “COMPOSITION AND METHOD FOR TREATING INFECTIONS” (priority 2020, published 2023)

Tests used:
[1] = system: SARS-CoV-2 (USA-WA1/2020 strain); test: Direct injection into viral suspension, plaque assay on Vero E6 cells; type: cell-based; settings: for reduction of viral burden by individual components: 1.4 and 3.9 µls propionic acid, 0.6 and 1.1 µls isoamyl hexanoates; for decline in viral burden: 360 mins post-addition
SARS-CoV-2 = test: Direct injection of Sx mixture or its components into virus suspension, Vero E6 plaque assay; type: cell-based; settings: for activity of the component alone: direct injection (FIGS. 20 and 21)
[2] = target: RBD of the SARS-CoV-2 spike protein to ACE2 (Severe acute respiratory syndrome coronavirus 2, UniProt P0DTC2); settings: cited from earlier work
[3] = propionic acid alone, direct injection

Molecule	reduction of viral burden by individual components [1]	decline in viral burden ([1]; 1.4 µls alone)	decline in viral burden ([1]; 3.9 µls alone)	time to undetectable levels of virus ([1]; 7.7 µl alone, direct injection)	time to undetectable viral burden ([1]; 15.4 µls alone, direct injection)	EC50 volume over the entire study ([1]; direct injection, entire 360 min study (AUC of viral burden-time), 37° C.)	reduction in activity of the virus (SARS-CoV-2; acid alone at 3.9 µL)	activity of the component alone (SARS-CoV-2)	time to complete inactivation of the virus (SARS-CoV-2; propionic acid alone at 7.7 µL)	volume of acid necessary for relative immediate inactivation of the virus (SARS-CoV-2; [3])	volume of acid necessary to get any appreciable activity (SARS-CoV-2; [3])	reduction of the binding affinity of RBD to ACE2 ([2]; addition of peptide to SARS-CoV-2)	reduction of virus activity ([2]; peptide added to the virus)	suppression of SARS-CoV-2 replication, component alone ([1]; direct injection, all treatment arms (FIG. 7B))	reduction in activity of the virus (SARS-CoV-2; esters alone (1.1 µL), at about 100 min)	reduction in virus activity (SARS-CoV-2; esters alone, highest concentration of 4.6 µL, over 300 minutes)	general reduction in virus activity (SARS-CoV-2; esters alone, within about 30 min, over the range of concentrations tested)
CCC(=O)O [propionic acid]	minimal reduction of viral burden	0.29 log10 PFU/ml	0.98 log10 PFU/ml	240 min	15 min	6.2 µls	about 0.5 log	only has marginal biological activity	220 min	at least 15.4 µL	up to 7.7 µL	–	–	–	–	–	–
GluGluLeuGlu	–	–	–	–	–	–	–	–	–	–	–	34%	34%	–	–	–	–
isoamyl hexanoates	minimal reduction of viral burden	–	–	–	–	–	–	no lasting activity	–	–	–	–	–	substantially less effective	~1 log	1 order of magnitude	~1 log
